Experimental data as given in US9642806B2, “Antifungal compositions with improved bioavailability” (Janssen Pharmaceutica N.V., priority 1996, dated 2017).

Key:
[1] = Thermal stability at melt-extrusion temperatures; assay type: physicochemical; details: temperatures up to 300° C.
Protocol: One of the most important parameters of melt extrusion is the temperature at which the melt-extruder is operating. […] At temperatures lower than 120° C., itraconazole will not dissolve completely in most water-soluble polymers and the extrudate will not have the required bioavailability. In addition, the process is difficult because of the high viscosity of the mixture. At temperatures of more than 300° C. the water-soluble polymer may decompose to an unacceptable level.

[2] = Solubility in aqueous media (USP definition); assay type: physicochemical; details: water; USP definition: more than 10,000 parts of solvent for 1 part of solute
Text: The solvent referred to herein is water.

For `CCC(C)n1ncn(-c2ccc(N3CCN(c4ccc(OCC5COC(Cn6cncn6)(c6ccc(Cl)cc6Cl)O5)cc4)CC3)cc2)c1=O` (racemic) [itraconazole, (±)-cis-4-[4-[4-[4-[[2-(2,4-dichlorophenyl)-2-(1H-1,2,4-triazol-1-yl-methyl)-1,3-dioxolan-4-yl]methoxy]phenyl]-1-piperazinyl]phenyl]-2,4-dihydro-2-(1-methylpropyl)-3H-1,2,4-triazol-3-one], the “thermal stability (decomposition)” value [1] was “thermally very stable” and the “solubility in aqueous media” value [2] was “practically insoluble”.
